Source: US9096518B2, “Substituted hydroxamic acids and uses thereof” (Millennium Pharmaceuticals, Inc., priority 2009, dated 2015)
pIC50: −log10 of the molar value.

Each compound was assayed against T1, purified human HDAC6 (Homo sapiens, UniProt Q9UBN7) (assay: HDAC6 Enzyme Assay).
T1 construct: purchased BPS Bioscience 5006
T1 sequence (Q9UBN7 1-1215): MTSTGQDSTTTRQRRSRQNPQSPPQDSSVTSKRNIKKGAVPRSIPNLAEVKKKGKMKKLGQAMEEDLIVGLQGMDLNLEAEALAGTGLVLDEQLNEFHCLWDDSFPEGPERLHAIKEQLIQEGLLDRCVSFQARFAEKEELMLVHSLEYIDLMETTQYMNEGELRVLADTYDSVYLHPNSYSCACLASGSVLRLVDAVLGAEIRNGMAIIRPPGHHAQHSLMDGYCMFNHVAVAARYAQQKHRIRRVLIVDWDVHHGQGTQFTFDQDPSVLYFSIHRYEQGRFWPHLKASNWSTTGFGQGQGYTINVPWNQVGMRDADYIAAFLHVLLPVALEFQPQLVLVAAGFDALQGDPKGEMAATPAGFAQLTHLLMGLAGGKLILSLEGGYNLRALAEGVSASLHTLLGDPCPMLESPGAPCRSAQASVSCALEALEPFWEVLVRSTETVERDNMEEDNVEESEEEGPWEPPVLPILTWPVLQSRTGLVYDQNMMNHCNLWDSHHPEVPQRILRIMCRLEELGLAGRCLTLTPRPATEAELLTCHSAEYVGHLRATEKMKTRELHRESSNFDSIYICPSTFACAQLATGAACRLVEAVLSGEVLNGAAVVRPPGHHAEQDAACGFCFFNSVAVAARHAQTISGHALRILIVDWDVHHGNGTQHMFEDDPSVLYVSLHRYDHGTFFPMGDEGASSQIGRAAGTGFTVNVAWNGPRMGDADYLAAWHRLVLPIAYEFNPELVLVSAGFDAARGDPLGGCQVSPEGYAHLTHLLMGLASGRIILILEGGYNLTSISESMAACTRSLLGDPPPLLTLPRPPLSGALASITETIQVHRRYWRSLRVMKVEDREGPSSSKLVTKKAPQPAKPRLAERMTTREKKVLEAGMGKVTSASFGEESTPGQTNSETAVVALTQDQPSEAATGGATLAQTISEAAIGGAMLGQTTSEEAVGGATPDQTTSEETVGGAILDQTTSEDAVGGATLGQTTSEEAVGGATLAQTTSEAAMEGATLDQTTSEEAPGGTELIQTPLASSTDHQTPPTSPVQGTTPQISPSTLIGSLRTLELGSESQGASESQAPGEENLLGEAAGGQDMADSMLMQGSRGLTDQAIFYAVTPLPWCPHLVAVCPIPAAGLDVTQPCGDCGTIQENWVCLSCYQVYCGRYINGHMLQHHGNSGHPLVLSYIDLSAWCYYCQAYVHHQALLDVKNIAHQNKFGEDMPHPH
Type: biochemical
Method: To measure the inhibition of HDAC6 activity, purified human HDAC6 (BPS Bioscience; Cat. No. 5006) is incubated with substrate Ac-Arg-Gly-Lys(Ac)-AMC peptide (Bachem Biosciences; Cat. No. I-1925) for 1 hour at 30° C. in the presence of test compounds or vehicle DMSO control. The reaction is stopped with the HDAC inhibitor trichostatin A (Sigma; Cat. No. T8552) and the amount of Arg-Gly-Lys-AMC generated is quantitated by digestion with trypsin (Sigma; Cat. No. T1426) and subsequent measurement of the amount of AMC released using a fluorescent plate reader (Pherastar; BMG Technologies) set at Ex 340 nm and Em 460 nm. Concentration response curves are generated by calculating the fluorescence increase in test compound-treated samples relative to DMSO-treated controls, and enzyme inhibition (IC50) values are determined from those curves.

First: CC(=O)N[C@H](CC(C)C)C(=O)N1CCc2cc(C(=O)NO)ccc2C1 [Compound 17, 2-[(2R)-2-(acetylamino)-4-methylpentanoyl]-N-hydroxy-1,2,3,4-tetrahydroisoquinoline-6-carboxamide]
Second: CCCNC(=O)N1CCc2cc(C(=O)NO)ccc2C1 [Compound 97, N^6-hydroxy-N^2-propyl-3,4-dihydroisoquinoline-2,6(1H)-dicarboxamide]
The pIC50 of the first is lower: 6.30 to 7.00 for the first, 7.00 to 7.30 for the second. The second is the more potent here.

`O=C(NO)c1ccc2c(c1)CCN(C(=O)Nc1ccccc1-c1ccccc1)C2` [Compound 102, N^2-biphenyl-2-yl-N^6-hydroxy-3,4-dihydroisoquinoline-2,6(1H)-dicarboxamide] and `O=C(NO)c1ccc2c(c1)CCN(C(=O)Nc1ccc(Cc3ccccc3)cc1)C2` [Compound 99, N^2-(4-benzylphenyl)-N^6-hydroxy-3,4-dihydroisoquinoline-2,6(1H)-dicarboxamide] cannot be ordered by pIC50: greater than 7.30 for the first, greater than 7.30 for the second.

`O=C(NO)c1ccc2c(c1)CCN(Cc1ccc3ccccc3n1)C2` [Compound 60, N-hydroxy-2-(quinolin-2-ylmethyl)-1,2,3,4-tetrahydroisoquinoline-6-carboxamide] and `O=C(NO)c1ccc2c(c1)CCN(C(=O)c1cccc3ccccc13)C2` [Compound 12, N-hydroxy-2-(1-naphthoyl)-1,2,3,4-tetrahydroisoquinoline-6-carboxamide] fall in the same range of pIC50: 7.00 to 7.30 for the first, 7.00 to 7.30 for the second.

`Cc1ccc(CNC(=O)N2CCc3cc(C(=O)NO)ccc3C2)cc1` [Compound 105, N^6-hydroxy-N^2-(4-methylbenzyl)-3,4-dihydroisoquinoline-2,6(1H)-dicarboxamide] and `CC(C)c1ccc(NC(=O)N2CCc3cc(C(=O)NO)ccc3C2)cc1` [Compound 104, N^6-hydroxy-N^2-(4-isopropylphenyl)-3,4-dihydroisoquinoline-2,6(1H)-dicarboxamide] cannot be ordered by pIC50: greater than 7.30 for the first, greater than 7.30 for the second.

`O=C(NO)c1ccc2c(c1)CCN(CCOc1ccccc1)C2` [Compound 63, N-hydroxy-2-(2-phenoxyethyl)-1,2,3,4-tetrahydroisoquinoline-6-carboxamide] and `O=C(NO)c1ccc2c(c1)CCN(CCCc1ccccc1)C2` [Compound 62, N-hydroxy-2-(3-phenylpropyl)-1,2,3,4-tetrahydroisoquinoline-6-carboxamide] fall in the same range of pIC50: 6.30 to 7.00 for the first, 6.30 to 7.00 for the second.

Compared with `COc1ccccc1-c1nc(CN2CCc3cc(C(=O)NO)ccc3C2)no1` [Compound 72, N-hydroxy-2-{[5-(2-methoxyphenyl)-1,2,4-oxadiazol-3-yl]methyl}-1,2,3,4-tetrahydroisoquinoline-6-carboxamide], `O=C(NO)c1ccc2c(c1)CCN(Cc1ccc(-n3cccn3)cc1)C2` [Compound 68, N-hydroxy-2-[4-(1H-pyrazol-1-yl)benzyl]-1,2,3,4-tetrahydroisoquinoline-6-carboxamide] is lower in pIC50: greater than 7.30 for the first, 6.30 to 7.00 for the second.

First: Cc1cc(C(=O)N2CCCc3cc(C(=O)NO)ccc3C2)no1 [Compound 245, N-hydroxy-2-[(5-methylisoxazol-3-yl)carbonyl]-2,3,4,5-tetrahydro-1H-2-benzazepine-7-carboxamide]
Second: Cn1ccc(C(=O)N2CCCc3cc(C(=O)NO)ccc3C2)n1 [Compound 233, N-hydroxy-2-[(1-methyl-1H-pyrazol-3-yl)carbonyl]-2,3,4,5-tetrahydro-1H-2-benzazepine-7-carboxamide]
The pIC50 of the first is higher: 6.30 to 7.00 for the first, less than 6.30 for the second. The first is the more potent here.

Compared with `O=C(NO)c1ccc2c(c1)CCCN(C(=O)c1cc3cc(Cl)ccc3o1)C2` [Compound 257, 2-[(5-chloro-1-benzofuran-2-yl)carbonyl]-N-hydroxy-2,3,4,5-tetrahydro-1H-2-benzazepine-7-carboxamide], `COc1ccc(C(=O)N2CCCc3cc(C(=O)NO)ccc3C2)cc1` [Compound 235, N-hydroxy-2-(4-methoxybenzoyl)-2,3,4,5-tetrahydro-1H-2-benzazepine-7-carboxamide] is lower in pIC50: 7.00 to 7.30 for the first, 6.30 to 7.00 for the second. The first is the more potent here.

First: O=C(NO)c1ccc2c(c1)CCN(C(=O)Nc1ccc3c(c1)CCO3)C2 [Compound 89, N^2-(2,3-dihydro-1-benzofuran-5-yl)-N^6-hydroxy-3,4-dihydroisoquinoline-2,6(1H)-dicarboxamide]
Second: O=C(NO)c1ccc2c(c1)CCN(C(=O)Cc1ccccc1)C2 [Compound 15, N-hydroxy-2-(phenylacetyl)-1,2,3,4-tetrahydroisoquinoline-6-carboxamide]
The pIC50 of the first is higher: greater than 7.30 for the first, 7.00 to 7.30 for the second.

`COc1cc(Cl)ccc1C(=O)N1Cc2ccc(C(=O)NO)cc2C1` [Compound 79, 2-(4-chloro-2-methoxybenzoyl)-N-hydroxyisoindoline-5-carboxamide] and `CC(C)(C(=O)N1Cc2ccc(C(=O)NO)cc2C1)c1ccc(Cl)cc1` [Compound 80, 2-[2-(4-chlorophenyl)-2-methylpropanoyl]-N-hydroxyisoindoline-5-carboxamide] cannot be ordered by pIC50: greater than 7.30 for the first, greater than 7.30 for the second.

First: O=C(NO)c1ccc2c(c1)CCN(S(=O)(=O)CC(c1ccccc1)c1ccccc1)C2 [Compound 56, 2-[(2,2-diphenylethyl)sulfonyl]-N-hydroxy-1,2,3,4-tetrahydroisoquinoline-6-carboxamide]
Second: Cc1ccc(S(=O)(=O)N2CCc3cc(C(=O)NO)ccc3C2)cc1 [Compound 45, N-hydroxy-2-[(4-methylphenyl)sulfonyl]-1,2,3,4-tetrahydroisoquinoline-6-carboxamide]
The pIC50 of the first is lower: 6.30 to 7.00 for the first, 7.00 to 7.30 for the second.

Compared with `O=C(NO)c1ccc2c(c1)CCCN(C(=O)c1cc(C(F)(F)F)cc(C(F)(F)F)c1)C2` [Compound 261], `CC(=O)Nc1cc(NC(C)=O)cc(C(=O)N2CCCc3cc(C(=O)NO)ccc3C2)c1` [Compound 256, 2-[3,5-bis(acetylamino)benzoyl]-N-hydroxy-2,3,4,5-tetrahydro-1H-2-benzazepine-7-carboxamide] is higher in pIC50: less than 6.30 for the first, 6.30 to 7.00 for the second.

Compared with `O=C(NO)c1ccc2c(c1)CCN(S(=O)(=O)c1cccc(-c3ccc(F)cc3)c1)C2` [Compound 48, 2-[(4′-fluorobiphenyl-3-yl)sulfonyl]-N-hydroxy-1,2,3,4-tetrahydroisoquinoline-6-carboxamide], `CC(C)C(C(=O)N1CCc2cc(C(=O)NO)ccc2C1)c1ccccc1` (stereo not drawn) [Compound 27, N-hydroxy-2-(3-methyl-2-phenylbutanoyl)-1,2,3,4-tetrahydroisoquinoline-6-carboxamide] is higher in pIC50: 7.00 to 7.30 for the first, greater than 7.30 for the second. The second is the more potent here.

`Cn1cccc1C(=O)N1CCc2ccc(C(=O)NO)cc2CC1` [Compound 86, N-hydroxy-3-[(1-methyl-1H-pyrrol-2-yl)carbonyl]-2,3,4,5-tetrahydro-1H-3-benzazepine-7-carboxamide] and `Cn1cccc1C(=O)N1CCCc2cc(C(=O)NO)ccc2C1` [Compound 83, N-hydroxy-2-[(1-methyl-1H-pyrrol-2-yl)carbonyl]-2,3,4,5-tetrahydro-1H-2-benzazepine-7-carboxamide] fall in the same range of pIC50: 6.30 to 7.00 for the first, 6.30 to 7.00 for the second.

First: O=C(NO)c1ccc2c(c1)CCN(C(=O)NC1CCCCC1)C2 [Compound 101, N^2-cyclohexyl-N^6-hydroxy-3,4-dihydroisoquinoline-2,6(1H)-dicarboxamide]
Second: O=C(NO)c1ccc2c(c1)CCN(C(=O)CC1CC1)C2 [Compound 106, 2-(cyclopropylacetyl)-N-hydroxy-1,2,3,4-tetrahydroisoquinoline-6-carboxamide]
The pIC50 of the first is higher: greater than 7.30 for the first, 6.30 to 7.00 for the second.

First: Cn1cccc1C(=O)N1Cc2ccc(C(=O)NO)cc2C1 [Compound 78, N-hydroxy-2-[(1-methyl-1H-pyrrol-2-yl)carbonyl]isoindoline-5-carboxamide]
Second: CC1(C(=O)N2CCc3cc(C(=O)NO)ccc3C2)CC1 [Compound 23, N-hydroxy-2-(1-methylcyclopropanecarbonyl)-1,2,3,4-tetrahydroisoquinoline-6-carboxamide]
The pIC50 of the first is higher: greater than 7.30 for the first, 7.00 to 7.30 for the second.

`Cc1cc(C)n(CC(=O)N2CCc3cc(C(=O)NO)ccc3C2)n1` [Compound 31, 2-[(3,5-dimethyl-1H-pyrazol-1-yl)acetyl]-N-hydroxy-1,2,3,4-tetrahydroisoquinoline-6-carboxamide] gave a pIC50 of 6.30 to 7.00.
